Positions of bridges follow the written chain, without caps; N, C: chain ends. Non-standard residues stand in square brackets, D forms with d. Residues, ends and D or L forms follow the SMILES beside them. *: point of attachment. hPhe(3-Cl-4-CF3) = N[C@@H](CCc1ccc(C(F)(F)F)c(Cl)c1)C(=O)O; NMePhe(3-Cl) = CN[C@@H](Cc1cccc(Cl)c1)C(=O)O; NMePhe(4-Cl) = CN[C@@H](Cc1ccc(Cl)cc1)C(=O)O; NMeGly(cPent) = CN[C@H](C(=O)O)C1CCCC1; Phe(3-F) = N[C@@H](Cc1cccc(F)c1)C(=O)O; Phe(3-I) = N[C@@H](Cc1cccc(I)c1)C(=O)O; NMeGly(cBu) = CN[C@H](C(=O)O)C1CCC1; NMeCha = CN[C@@H](CC1CCCCC1)C(=O)O; NMeF = CN[C@@H](Cc1ccccc1)C(=O)O; NMeE = CN[C@@H](CCC(=O)O)C(=O)O; NMeD = CN[C@@H](CC(=O)O)C(=O)O; NMeL = CN[C@@H](CC(C)C)C(=O)O; NMeV = CN[C@H](C(=O)O)C(C)C; d(β3hA) = C[C@@H](N)CC(=O)O; NMeA = CN[C@@H](C)C(=O)O; NMeAib = CNC(C)(C)C(=O)O; Piperidide = C1CCN(*)CC1; Pyrrolidide = C1CCN(*)C1; Ac5c = NC1(C(=O)O)CCCC1; Aze = O=C(O)[C@@H]1CCN1; Sar = CNCC(=O)O

T1 sequence (P01116 1-188 isoform P01116-2 G12D): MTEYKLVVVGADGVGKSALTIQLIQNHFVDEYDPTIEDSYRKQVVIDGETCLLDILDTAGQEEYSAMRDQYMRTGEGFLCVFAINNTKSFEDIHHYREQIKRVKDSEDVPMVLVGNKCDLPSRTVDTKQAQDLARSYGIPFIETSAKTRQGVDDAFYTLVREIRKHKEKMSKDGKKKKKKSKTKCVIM

The experiment addresses T1, Kras and SOS1 (biotin-tagged human Kras loaded with GDP, His-tagged human SOS1) (Homo sapiens, UniProt P01116, G12D).
T1 construct: made in house; host or cells: E. coli (stated for Kras only)
The experiment in a line: Protein-protein interaction inhibition between Kras and SOS1 (KrasGl2D-SOS PPI) using AlphaScreen. Type of experiment: binding. The conditions noted are these: AlphaScreen; biotin-tagged human Kras loaded with GDP, His-tagged human SOS1; read-out: KRAS G12D-SOS PPI IC50. The method, boiled down:
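AlphaScreen format: Ni donor beads capture His-SOS1, streptavidin acceptor beads capture biotinylated Kras (E. coli-expressed, GDP-loaded post-purification). Excite 680 nm, read 520-620 nm.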
On the technique in general: Bead proximity is the source of the signal in Alpha formats.
By IC50 is commonly meant the concentration that gives 50% inhibition. For the compound `CC[C@H](C)[C@@H]1NC(=O)[C@H](CC(C)C)N(C)C(=O)C[C@@H](C(=O)N2CCCCC2)N(C)C(=O)[C@H](CC(C)C)NC(=O)C(C)(C)N(C)C(=O)[C@H](Cc2ccc(OC)cc2)NC(=O)[C@H](Cc2cccc(I)c2)NC(=O)CN(C)C(=O)[C@H](CC2CCCCC2)N(C)C(=O)[C@@H]2CCN2C(=O)[C@H](C)N(C)C1=O` [Compound 169] ([NMeL]I[NMeA][Aze][NMeCha][Sar][Phe(3-I)]Y(Me)[NMeAib]L[NMeD]-Piperidide; lactam N-11), the IC50 was 16 nM.

Consider `CC[C@H](C)[C@@H]1NC(=O)[C@H](CC(C)C)N(C)C(=O)C[C@@H](C(=O)N(C)C)N(C)C(=O)[C@H](C2CCCC2)N(C)C(=O)C2(CCCC2)NC(=O)[C@H](Cc2cccc(Cl)c2)N(C)C(=O)[C@H](CCc2ccc(C(F)(F)F)c(Cl)c2)NC(=O)CN(C)C(=O)[C@H](CC2CCCCC2)N(C)C(=O)[C@@H]2CCN2C(=O)[C@H](C)N(C)C1=O` [Compound 179] ([NMeL]I[NMeA][Aze][NMeCha][Sar][hPhe(3-Cl-4-CF3)][NMePhe(3-Cl)][Ac5c][NMeGly(cPent)][NMeD]-NMe2; lactam N-11), for which the IC50 is 42 nM. `CC[C@H](C)[C@@H]1NC(=O)[C@H](CC(C)C)N(C)C(=O)C[C@@H](C(=O)N2CCCCC2)N(C)C(=O)[C@H](C(C)C)N(C)C(=O)C2(CCCC2)NC(=O)[C@@H]2CCCN2C(=O)[C@H](CCc2ccc(C(F)(F)F)c(Cl)c2)NC(=O)CN(C)C(=O)[C@H](CC2CCCCC2)N(C)C(=O)[C@@H]2CCN2C(=O)[C@H](CCC(=O)NC)N(C)C1=O` [Compound 180] ([NMeL]I[NMeE](NHMe)[Aze][NMeCha][Sar][hPhe(3-Cl-4-CF3)]P[Ac5c][NMeV][NMeD]-Piperidide; lactam N-11): the IC50 amounted to 11 nM. `CC[C@H](C)[C@@H]1NC(=O)[C@H](CC(C)C)N(C)C(=O)C[C@@H](C)NC(=O)[C@H](C2CCC2)N(C)C(=O)C2(CCCC2)NC(=O)[C@@H]2CCCN2C(=O)[C@H](CCc2ccc(C(F)(F)F)c(Cl)c2)NC(=O)CN(C)C(=O)[C@H](CC2CCCCC2)N(C)C(=O)CN(C)C(=O)CN(C)C1=O` [Compound 183] (cyclo([Ac5c][NMeGly(cBu)][d(β3hA)][NMeL]I[Sar][Sar][NMeCha][Sar][hPhe(3-Cl-4-CF3)]P)): the IC50 turned out to be 26 nM. `CC[C@H](C)[C@@H]1NC(=O)[C@H](C)N(C)C(=O)C[C@@H](C(=O)N2CCCC2)NC(=O)[C@H](C(C)C)N(C)C(=O)[C@H](Cc2ccccc2)N(C)C(=O)[C@H](Cc2ccccc2)NC(=O)[C@H](Cc2cccc(F)c2)NC(=O)CN(C)C(=O)[C@H](Cc2ccc(Cl)cc2)N(C)C(=O)CN(C)C(=O)CN(C)C1=O` [Compound 184] ([NMeA]I[Sar][Sar][NMePhe(4-Cl)][Sar][Phe(3-F)]F[NMeF][NMeV]D-Pyrrolidide; lactam N-11): the IC50 is 320 nM. Consider `CC[C@H](C)[C@@H]1NC(=O)[C@H](CC(C)C)N(C)C(=O)C[C@@H](C)NC(=O)[C@H](C(C)C)N(C)C(=O)C2(CCCC2)NC(=O)[C@@H]2CCCN2C(=O)[C@H](CCc2ccc(C(F)(F)F)c(Cl)c2)NC(=O)CN(C)C(=O)[C@H](CC2CCCCC2)N(C)C(=O)CN(C)C(=O)[C@@H]2CCCN2C1=O` [Compound 185] (cyclo([Ac5c][NMeV][d(β3hA)][NMeL]IP[Sar][NMeCha][Sar][hPhe(3-Cl-4-CF3)]P)), for which the IC50 came out at 170 nM. As for `CC[C@H](C)[C@@H]1NC(=O)[C@H](C)N(C)C(=O)C[C@@H](C)NC(=O)[C@H](C2CCCC2)N(C)C(=O)C2(CCCC2)NC(=O)[C@@H]2CCCN2C(=O)[C@H](CCc2ccc(C(F)(F)F)c(Cl)c2)NC(=O)CN(C)C(=O)[C@H](Cc2cccc(Cl)c2)N(C)C(=O)[C@@H]2CCCN2C(=O)CN(C)C1=O` [Compound 186] (cyclo([Ac5c][NMeGly(cPent)][d(β3hA)][NMeA]I[Sar]P[NMePhe(3-Cl)][Sar][hPhe(3-Cl-4-CF3)]P)), the IC50 came to 48 nM.

The record behind these values is patent publication US12371454B2, “Cyclic peptide compound having Kras inhibitory action” (priority 2019, dated 2025).
